For 39 compounds, cytotoxicity results are on record in ChEMBL document CHEMBL3507680, “University of Dundee, Gates Library screen for HepG2 cell viability”.

This series in a line: Human HepG2 cell viability assay in 384 well format. To be noted: HepG2 cells, read-out: Inhibition. Also noted: dose 125 nL, time 70.5 hour; concentration not given beside the values. The format is toxicity, cell-based.
Consider `Cc1cccc(CN2CCC3(CC2)NC(=O)C[C@H]3c2cnn(C)c2)n1`, for which the cytotoxicity at 70.5 h is -8.35%.
As for `CN(Cc1ccccc1)CC1CC2(CO1)CN(c1nncs1)C2` (centres undefined), the figure is -8.78%; as for `CC(C)CC(C)N(C)C(=O)c1nc(S(C)(=O)=O)n2ccccc12` (centres undefined), 2.74%; as for `O=C(c1cnoc1)N1CCC[C@]2(C[C@@H](OCc3ccccn3)CO2)C1`, -9.96%.
Regarding `Cc1ccccc1OCC(=O)N1CCOC2(CNCCOC2)C1` (centres undefined), the cytotoxicity at 70.5 h was -5.6%.
As for `O=C1CCC2(CCCN(C(=O)c3ccco3)CC2)N1` (centres undefined), the figure is -3.81%; as for `CC(C)NC(=O)c1ccc2c(c1)C(c1nc[nH]n1)CN2C` (centres undefined), -8.61%.
Turning to `CC(C)CN1CCC2(CC(C(=O)NCc3cccnc3)=NO2)C1` (centres undefined), the cytotoxicity at 70.5 h is -5.8%.
As for `O=C(Nc1ncc[nH]1)c1cc(-c2cccnc2)n[nH]1`, the cytotoxicity at 70.5 h is -2.08%.
Next, `Cc1cc(CN(C)C2CCCN(c3cccnn3)C2)no1` (centres undefined): -9.99%.
On to `N#Cc1ccc(N2CCCN(CC(=O)N3CCNC(=O)C3)CC2)cc1`, for which the cytotoxicity at 70.5 h turned out to be 3.9%.
With `O=S(=O)(c1cccnc1)N1CCN(Cc2nc(-c3ccco3)cs2)CC1`, the cytotoxicity at 70.5 h is 0.0264%.
As for `CN(Cc1ccc(C#N)cc1)Cn1nccc1-c1cccnc1`, the figure is -4%; as for `Cn1cnc2c1C(COCc1cccnc1)N(Cc1nccs1)CC2` (centres undefined), -1.3%.
For the compound `CS(=O)(=O)NCC1CCCN(C(=O)Nc2ccccc2N2CCCC2)C1` (centres undefined), the cytotoxicity at 70.5 h was -1.87%.
In the case of `Cn1cncc1C(=O)N1C[C@@H]2CCN(c3cnccn3)C[C@@H]2C1`, the cytotoxicity at 70.5 h is -11.9%.
Next, `O=C(CN1CCCC(c2noc(C3CC3)n2)C1)N1CCCC1` (centres undefined): 4.7%.
As to `CCn1ncnc1CN(C/C=C/c1ccccc1)CCOC`, the cytotoxicity at 70.5 h is -1.42%.
As for `CN1C(=O)CC(C(=O)O)C12CCN(c1ccc3cccc(Cl)c3n1)CC2` (centres undefined), the cytotoxicity at 70.5 h was -4.5%.
As for `c1cncc(COCc2nnc3n2CCN(Cc2cccs2)C3)c1`, the figure is 12.3%; as for `O=C(Nc1cccc2c1CCCC2)C1CCCN1c1nccs1` (centres undefined), 2.35%; as for `Cc1nc(C)n(CC(C)C(=O)N2CCC(N3CCC(O)CC3)CC2)n1` (centres undefined), -3.14%.
As for `CCC(CC)CS(=O)(=O)NC(=O)C1CCC1`, the figure is -4.87%; as for `CCS(=O)(=O)N1CCC2(CN(c3ccsc3)C(=O)CN2C)C1` (centres undefined), -124%.
As for `Cc1cc(N2CCOC(c3ccc(C(N)=O)cn3)C2)ncn1` (centres undefined), the figure is 19.9%; as for `CCc1ccc(S(=O)(=O)N2CCCn3ncnc32)s1`, -3.85%.
Take `COCC(=O)N1CCC(C(=O)Nc2ccc(C(C)=O)cc2)CC1`: the cytotoxicity at 70.5 h is -7.91%.
With `CCn1cnnc1CNC(=O)NCC(C(C)C)N1CCOCC1` (centres undefined), the cytotoxicity at 70.5 h is -13%.
In the case of `CN(Cc1ccc(F)cc1)C(=O)c1ccoc1CN1CCNC(=O)C1`, the cytotoxicity at 70.5 h is -18.2%.
For `COc1ccccc1[C@@H]1CN(CC2CCC2)C[C@H]1C(=O)O`, the cytotoxicity at 70.5 h is -5.88%.
As for `CCCn1ncc(C(=O)N(C)Cc2n[nH]c3c2CCC3)c1C`, the figure is -11.7%; as for `CN(C)CC(=O)N1CCC2(CCN(Cc3cccc(F)c3)CC2)C1`, -8.05%; as for `COc1ccccc1OCC(=O)N1C[C@@H]2CN(C)CCO[C@@H]2C1`, 32.3%.
`CC(CNC(=O)CCn1cncn1)N1CCc2ccccc21` (centres undefined): the cytotoxicity at 70.5 h was -1.72%.
With `CCOc1ccc(CN2CCc3nc4ccsc4c(=O)n3CC2)cc1`, the cytotoxicity at 70.5 h is -6.57%.
For the compound `Cc1cc(NC(=O)NCC(C)N2CCc3ccccc32)no1` (centres undefined), the cytotoxicity at 70.5 h was -5.5%.
With `CC1CN(C(=O)c2ccn(-c3cccc(Cl)c3)n2)CCO1` (centres undefined), the cytotoxicity at 70.5 h was -6.58%.
Consider `c1nc2n(c1CN1CCOCC1)CCN(C1CCOC1)CC2` (centres undefined), for which the cytotoxicity at 70.5 h worked out at 7.7%.
Turning to `CC(C)NC(=O)NC[C@H]1OC[C@@H](NCc2ccncc2)[C@@H]1O`, the cytotoxicity at 70.5 h is -3.41%.
